Laboratory results from patent publication US20230107642A1 (Erasca, Inc., priority 2020, published 2023).

What follows are molecules tested against T1, K-Ras G12C (Homo sapiens, UniProt P01116, G12C) (assay: CAF assay (% CAF; method in Example 7, not in this part)). Details: 10 uM compound, 1 h incubation.
T1 construct: This protein contained 188 amino acids in total, including an N-terminal 6-Histidine tag; made in house; host or cells: E. coli BL21
Format: binding

Row | Structure (SMILES) | % CAF @ 10 uM, 1h [%]
1 | C=CC(=O)N1CCN(c2nc(=O)n3c4c(c(-c5cc(Cl)c(F)cc5F)c(Cl)cc24)SC[C@@H]3CC2CCN(C3COC3)CC2)[C@@H](C)C1 [Example 426, (3S)-7-((S)-4-acryloyl-2-methylpiperazin-1-yl)-9-chloro-10-(5-chloro-2,4-difluorophenyl)-3-((1-(oxetan-3-yl)piperidin-4-yl)methyl)-2H-[1,4]thiazino[2,3,4-ij]quinazolin-5(3H)-one] | 82.8
2 | C=CC(=O)N1C[C@H](C)N(c2nc(=O)n3c4c(c(-c5cccc6cnn(C)c56)c(Cl)cc24)SC[C@@H]3CN2CCN(CC(F)F)CC2)C[C@H]1C (atropisomer, axis not shown) [Example 570, (3S,10S)-7-((2S,5R)-4-acryloyl-2,5-dimethylpiperazin-1-yl)-9-chloro-3-((4-(2,2-difluoroethyl)piperazin-1-yl)methyl)-10-(1-methyl-1H-indazol-7-yl)-2,3-dihydro-5H-[1,4]thiazino[2,3,4-ij]quinazolin-5-one] | 0
3 | C=CC(=O)N1[C@H](C)CN(c2nc(=O)n3c4c(c(-c5cc(Cl)c(F)cc5F)c(C(F)(F)F)cc24)SC[C@@H]3CN2CCC3(CC2)COC3)C[C@@H]1C (atropisomer, axis not shown) [Example 565, (3S,10S)-3-((2-oxa-7-azaspiro[3.5]nonan-7-yl)methyl)-7-((3S,5R)-4-acryloyl-3,5-dimethylpiperazin-1-yl)-10-(5-chloro-2,4-difluorophenyl)-9-(trifluoromethyl)-2,3-dihydro-5H-[1,4]thiazino[2,3,4-ij]quinazolin-5-one] | 48.3
4 | C=CC(=O)N1C2CN(c3nc(=O)n4c5c(c(-c6ccc(F)cc6F)c(C(F)(F)F)cc35)SC[C@@H]4COC)CC1CC(F)(F)C2 [Example 523, (3S)-7-(9-acryloyl-7,7-difluoro-3,9-diazabicyclo[3.3.1]nonan-3-yl)-10-(2,4-difluorophenyl)-3-(methoxymethyl)-9-(trifluoromethyl)-2H-[1,4]thiazino[2,3,4-ij]quinazolin-5(3H)-one] | 68.9
5 | C=CC(=O)N1C[C@H](C)N(c2nc(=O)n3c4c(c(-c5ccc(F)cc5F)c(C(F)(F)F)cc24)SC[C@@H]3COCCOC)C[C@H]1C (atropisomer, axis not shown) [Example 511, (3S,10R)-7-((2S,5R)-4-acryloyl-2,5-dimethylpiperazin-1-yl)-10-(2,4-difluorophenyl)-3-((2-methoxyethoxy)methyl)-9-(trifluoromethyl)-2,3-dihydro-5H-[1,4]thiazino[2,3,4-ij]quinazolin-5-one] | 80.6
6 | C=CC(=O)N1CCN(c2nc(=O)n3c4c(c(-c5cc(Cl)c(F)cc5F)c(Cl)cc24)SC[C@@H]3CN2CCC3(CC2)COC3)[C@@H](C)C1 (atropisomer, axis not shown) [Example 482, (3S,10S)-3-((2-oxa-7-azaspiro[3.5]nonan-7-yl)methyl)-7-((S)-4-acryloyl-2-methylpiperazin-1-yl)-9-chloro-10-(5-chloro-2,4-difluorophenyl)-2,3-dihydro-5H-[1,4]thiazino[2,3,4-ij]quinazolin-5-one] | 90
7 | C=CC(=O)N1CCN(c2nc(=O)n3c4c(c(-c5cc(Cl)c(F)cc5F)c(Cl)cc24)SC[C@H](OC)C3)CC1 [Example 538, (3R)-8-(4-acryloylpiperazin-1-yl)-10-chloro-11-(5-chloro-2,4-difluorophenyl)-3-methoxy-3,4-dihydro-2H,6H-[1,4]thiazepino[2,3,4-ij]quinazolin-6-one] | 97
8 | C=CC(=O)N1[C@H](C)CN(c2nc(=O)n3c4c(c(-c5ccc(F)cc5F)c(Cl)cc24)SC[C@H](OC)C3)C[C@@H]1C [Example 526, (3R)-8-((3S,5R)-4-acryloyl-3,5-dimethylpiperazin-1-yl)-10-chloro-11-(2,4-difluorophenyl)-3-methoxy-3,4-dihydro-2H,6H-[1,4]thiazepino[2,3,4-ij]quinazolin-6-one] | 93

Continued, values first:

Row | % CAF @ 10 uM, 1h [%] | Structure (SMILES)
9 | 84.2 | C=CC(=O)N1CCN(c2nc(=O)n3c4c(c(-c5ccc(F)cc5F)c(Cl)cc24)SC[C@@H]3CN2CCN(C3CC3)CC2)[C@@H](C)C1 [Example 422, (3S)-7-((S)-4-acryloyl-2-methylpiperazin-1-yl)-9-chloro-3((4-cyclopropylpiperazin-1-yl)methyl)-10-(2,4-difluorophenyl)-2H-[1,4]thiazino[2,3,4-ij]quinazolin-5(3H)-one]
10 | 21.2 | C=CC(=O)N1C[C@H](C)N(c2nc(=O)n3c4c(c(-c5cc(Cl)c(F)cc5F)c(C(F)(F)F)cc24)SC[C@@H]3CN2CCN(CC(F)F)CC2)C[C@H]1C (atropisomer, axis not shown) [Example 557, (3S,10S)-7-((2S,5R)-4-acryloyl-2,5-dimethylpiperazin-1-yl)-10-(5-chloro-2,4-difluorophenyl)-3-((4-(2,2-difluoroethyl)piperazin-1-yl)methyl)-9-(trifluoromethyl)-2H-[1,4]thiazino[2,3,4-ij]quinazolin-5(3H)-one]
11 | 50.8 | C=CC(=O)N1C[C@H](C)N(c2nc(=O)n3c4c(c(-c5cc(Cl)c(F)cc5F)c(Cl)cc24)SC[C@@H]3CN2CCN(CC(F)F)CC2)C[C@H]1C [Example 495, (3S)-7-((2S,5R)-4-acryloyl-2,5-dimethylpiperazin-1-yl)-9-chloro-10-(5-chloro-2,4-difluorophenyl)-3-((4-(2,2-difluoroethyl)piperazin-1-yl)methyl)-2H-[1,4]thiazino[2,3,4-ij]quinazolin-5(3H)-one]
12 | 94.1 | C=CC(=O)N1C[C@H](C)N(c2nc(=O)n3c4c(c(-c5cc(Cl)c(F)cc5F)c(C(F)(F)F)cc24)SC[C@@H]3COC)C[C@H]1C (atropisomer, axis not shown) [Example 545, (3S,10R)-7-((2S,5R)-4-acryloyl-2,5-dimethylpiperazin-1-yl)-10-(5-chloro-2,4-difluorophenyl)-3-(methoxymethyl)-9-(trifluoromethyl)-2,3-dihydro-5H-[1,4]thiazino[2,3,4-ij]quinazolin-5-one]

Same assay, conditions: 10 uM, 1 h; Table 3

Row | Structure (SMILES) | % CAF @ 10 uM, 1h [%]
13 | C=CC(=O)N1CCN(c2nc(=O)n3c4c(c(-c5ccc(F)cc5F)c(Cl)cc24)S(=O)(=O)CC3)[C@@H](C)C1 [Example 148] | 95.9
14 | C=CC(=O)N1CCN(c2nc(=O)n3c4c(c(-c5c(F)cc(F)cc5F)c(Cl)cc24)SC[C@@H]3CC2CCN(C)CC2)[C@@H](C)C1 [Example 92, (S)-7-((S)-4-acryloyl-2-methylpiperazin-1-yl)-9-chloro-3-((1-methylpiperidin-4-yl)methyl)-10-(2,4,6-trifluorophenyl)-2,3-dihydro-5H-[1,4]thiazino[2,3,4-ij]quinazolin-5-one] | 96.7
15 | C=CC(=O)N1CCN(c2nc(=O)n3c4c(c(-c5ccc(F)cc5F)c(Cl)cc24)SC(C)(C)C3)[C@@H](C)C1 [Example 75, 7-((S)-4-acryloyl-2-methylpiperazin-1-yl)-9-chloro-10-(2,4-difluorophenyl)-2,2-dimethyl-2,3-dihydro-5H-[1,4]thiazino[2,3,4-ij]quinazolin-5-one] | 86.8

Other lines, results leading:

Row | % CAF @ 10 uM, 1h [%] | Structure (SMILES)
16 | 90.6 | C=CC(=O)N1CCN(c2nc(=O)n3c4c(c(-c5ccc(F)cc5F)c(Cl)cc24)SCC3)C[C@@H]1C [Example 140, 7-((S)-4-acryloyl-3-methylpiperazin-1-yl)-9-chloro-10-(2,4-difluorophenyl)-2,3-dihydro-5H-[1,4]thiazino[2,3,4-ij]quinazolin-5-one]
17 | 96.5 | C=CC(=O)N1CCN(c2nc(=O)n3c4c(c(-c5ccc(F)cc5F)c(Cl)cc24)SC[C@H]3CCCN2C[C@@H]3C[C@H]2CO3)[C@@H](C)C1 [Example 97, (3R)-3-(3-((1S,4S)-2-oxa-5-azabicyclo[2.2.1]heptan-5-yl)propyl)-7-((S)-4-acryloyl-2-methylpiperazin-1-yl)-9-chloro-10-(2,4-difluorophenyl)-2,3-dihydro-5H-[1,4]thiazino[2,3,4-ij]quinazolin-5-one]
18 | 94.5 | C=CC(=O)N1CCN(c2nc(=O)n3c4c(c(-c5ccc(Cl)c(F)c5)c(Cl)cc24)SCC3)[C@@H](C)C1 [Example 89, (S)-7-(4-acryloyl-2-methylpiperazin-1-yl)-9-chloro-10-(4-chloro-3-fluorophenyl)-2,3-dihydro-5H-[1,4]thiazino[2,3,4-ij]quinazolin-5-one]
19 | 95 | C=CC(=O)N1[C@H](C)CN(c2nc(=O)n3c4c(c(-c5ccc(F)cc5F)c(Cl)cc24)SCC3)C[C@@H]1C [Example 157, 7-((3R,5S)-4-acryloyl-3,5-dimethylpiperazin-1-yl)-9-chloro-10-(2,4-difluorophenyl)-2,3-dihydro-5H-[1,4]thiazino[2,3,4-ij]quinazolin-5-one]
20 | 92.2 | C=CC(=O)N1CCN(c2nc(=O)n3c4c(c(-c5cccc6ccccc56)c(Cl)cc24)SCC3)[C@@H](C)C1 [Example 155, (S)-7-((S)-4-acryloyl-2-methylpiperazin-1-yl)-9-chloro-10-(naphthalen-1-yl)-2,3-dihydro-5H-[1,4]thiazino[2,3,4-ij]quinazolin-5-one]
21 | 55.3 | C=CC(=O)N1CCN(c2nc(=O)n3c4c(c(-c5cc(O)ccc5F)c(Cl)cc24)SCC3)[C@@H](C)C1 [Example 152, 7-((S)-4-acryloyl-2-methylpiperazin-1-yl)-9-chloro-10-(2-fluoro-5-hydroxyphenyl)-2,3-dihydro-5H-[1,4]thiazino[2,3,4-ij]quinazolin-5-one]
22 | 40.5 | C=C(F)C(=O)N1CCN(c2nc(=O)n3c4c(c(-c5ccc(F)cc5F)c(Cl)cc24)SCC3)C[C@@H]1CC#N [Example 176, 2-((2S)-4-(9-chloro-10-(2,4-difluorophenyl)-5-oxo-2,3-dihydro-5H-[1,4]thiazino[2,3,4-ij]quinazolin-7-yl)-1-(2-fluoroacryloyl)piper-azin-2-yl)acetonitrile]

Same assay, conditions: 10 μM, 1 h; Table 4

Row | % CAF @ 10 μM, 1 h [%] | Structure (SMILES)
23 | 94.7 | C=CC(=O)N1CCN(c2nc(=O)n3c4c(c(-c5ccc(F)cc5F)c(Cl)cc24)SC[C@@H]3CCCN2C[C@@H]3C[C@H]2CO3)[C@@H](C)C1 [Example 342, (3S)-3-(3-((1S,4S)-2-oxa-5-azabicyclo[2.2.1]heptan-5-yl)propyl)-7-((S)-4-acryloyl-2-methylpiperazin-1-yl)-9-chloro-10-(2,4-difluorophenyl)-2H-[1,4]thiazino[2,3,4-ij]quinazolin-5(3H)-one]
